Test [1] has as its target T1, Prostaglandin G/H synthase 1 (Ovis aries, UniProt P05979).
T1 sequence (P05979 whole entry): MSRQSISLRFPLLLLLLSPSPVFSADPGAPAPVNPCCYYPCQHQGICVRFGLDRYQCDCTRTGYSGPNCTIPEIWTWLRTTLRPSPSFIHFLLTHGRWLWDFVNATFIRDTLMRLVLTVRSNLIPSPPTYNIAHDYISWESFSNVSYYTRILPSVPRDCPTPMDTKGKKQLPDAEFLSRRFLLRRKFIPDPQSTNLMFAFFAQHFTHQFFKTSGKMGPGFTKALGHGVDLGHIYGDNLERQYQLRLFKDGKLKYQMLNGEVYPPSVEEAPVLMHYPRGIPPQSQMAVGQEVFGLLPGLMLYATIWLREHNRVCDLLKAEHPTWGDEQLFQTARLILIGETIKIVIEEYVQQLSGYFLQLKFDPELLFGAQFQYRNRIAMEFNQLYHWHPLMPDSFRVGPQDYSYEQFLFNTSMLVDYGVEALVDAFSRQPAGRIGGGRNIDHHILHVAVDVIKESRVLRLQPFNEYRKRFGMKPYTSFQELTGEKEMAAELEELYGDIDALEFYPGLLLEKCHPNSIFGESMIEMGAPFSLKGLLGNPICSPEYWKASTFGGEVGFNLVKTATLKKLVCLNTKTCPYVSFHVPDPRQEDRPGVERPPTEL
The test can be described thus: Inhibition of ovine COX1 assessed as PGH2 formation preincubated for 10 mins followed by addition of arachidonic acid as substrate measured after 2 mins by ELISA.

Test [2] has as its target T2, Prostaglandin G/H synthase 2 (Homo sapiens, UniProt P35354).
T2 sequence (P35354 whole entry): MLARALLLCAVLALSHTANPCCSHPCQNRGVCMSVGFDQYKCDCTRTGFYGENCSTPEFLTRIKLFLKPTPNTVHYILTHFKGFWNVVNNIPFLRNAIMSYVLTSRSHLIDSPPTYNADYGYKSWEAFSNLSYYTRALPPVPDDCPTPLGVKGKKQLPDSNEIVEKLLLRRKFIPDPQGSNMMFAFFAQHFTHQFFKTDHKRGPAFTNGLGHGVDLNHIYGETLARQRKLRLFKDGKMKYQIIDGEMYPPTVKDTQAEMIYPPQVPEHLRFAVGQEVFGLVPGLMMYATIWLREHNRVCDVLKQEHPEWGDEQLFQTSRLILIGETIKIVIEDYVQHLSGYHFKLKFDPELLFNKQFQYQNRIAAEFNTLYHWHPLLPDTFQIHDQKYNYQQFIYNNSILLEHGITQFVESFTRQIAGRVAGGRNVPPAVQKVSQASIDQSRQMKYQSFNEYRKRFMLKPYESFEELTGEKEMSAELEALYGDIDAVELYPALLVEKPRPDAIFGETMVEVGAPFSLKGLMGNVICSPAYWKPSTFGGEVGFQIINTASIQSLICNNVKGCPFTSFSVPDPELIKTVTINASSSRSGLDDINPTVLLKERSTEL
Put plainly: Inhibition of recombinant human COX2 assessed as PGH2 formation preincubated for 10 mins followed by addition of arachidonic acid as substrate measured after 2 mins by ELISA.

Test [3] is described as follows: Selectivity ratio of IC50 for ovine COX-1 to IC50 for recombinant human COX-2.
A short description of test [4]: Selectivity ratio of IC50 for recombinant human COX-2 to IC50 for ovine COX-1.

Usually IC50 stands for the concentration that gives 50% inhibition.

On to `CS(=O)(=O)c1ccc(Cc2nnnn2-c2ccc(O)cc2)cc1`, for which the IC50 in test [1] was 85 µM; in test [2] it was > 200 µM. Moreover, the Ratio IC50 in test [3] was > 0.42.

Regarding `CS(=O)(=O)c1ccc(-c2nnnn2-c2ccc(CCO)cc2)cc1`, the IC50 is > 500 µM in test [1] and 70 µM in test [2]. For the same compound, the Ratio IC50 in test [3] is > 7.1.

As to `CS(=O)(=O)c1ccc(-c2nnnn2-c2ccc(O)cc2)cc1`, the IC50 is > 500 µM in test [1] and > 300 µM in test [2]. Besides, the Ratio IC50 in test [3] was > 1.7.

In the case of `CS(=O)(=O)c1ccc(Cc2nnnn2-c2ccc(CCO)cc2)cc1`, the IC50 is > 200 µM in test [1] and 3 µM in test [2]. Also, the values for the Ratio IC50 in test [4] and in test [3] were > 0.015 and > 67, respectively.

Take `NS(=O)(=O)c1ccc(-c2nnnn2-c2ccc(CCO)cc2)cc1`: the IC50 in test [1] was > 200 µM; in test [2], 99 µM. For the same compound, in test [3], the Ratio IC50 was > 2.

For `NS(=O)(=O)c1ccc(-c2nnnn2-c2ccc(CO)cc2)cc1`, the IC50 in test [1] amounted to 21 µM; in test [2], 24 µM. Further, the Ratio IC50 in test [4] came to 1.14; in test [3], 0.87.

Consider `CS(=O)(=O)c1ccc(Cc2nnnn2-c2ccc(CO)cc2)cc1`, for which the IC50 in test [1] was > 200 µM; in test [2], 38 µM. Besides, the Ratio IC50 in test [4] was > 0.19; in test [3], > 5.2.

Turning to `NS(=O)(=O)c1ccc(-c2nnnn2-c2ccc(O)cc2)cc1`, the IC50 in test [1] was 100 µM; in test [2] it was > 500 µM. Besides, the Ratio IC50 in test [3] was > 0.2.

As to `CS(=O)(=O)c1ccc(-c2nnnn2-c2ccc(CO)cc2)cc1`, the results for the IC50 in test [1] and in test [2] were 9 µM and > 500 µM, respectively. The Ratio IC50 in test [4] was 55; in test [3], > 0.02.

These data come from ChEMBL document CHEMBL4431383, “Structure-activity relationship of novel series of 1,5-disubstituted tetrazoles as cyclooxygenase-2 inhibitors: Design, synthesis, bioassay screening and molecular docking studies” (Bioorg Med Chem Lett, 2016).
